Experimental data from patent US20180214428A1, “3-(1H-INDOL-2-YL)-1H-PYRAZOLO[3,4-B]PYRIDINES AND THERAPEUTIC USES THEREOF” (Samumed, LLC, priority 2015, published 2018).

Assays:
[1] = system: primary human fibroblasts derived from IPF patients (LL29 cells); test: Inhibition of the fibrotic process: αSMA staining in TGF-β1 treated LL29 fibroblasts; assay type: cell-based; conditions: Homo sapiens, Fibroblast, 96 h, TGF-β1 20 ng/mL, 4 days, % αSMA positive cells
Summary of the method: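 IPF patient-derived LL29 fibroblasts in 1% FBS medium got compound (11-point, 10 μM to 1.87 nM, 0.1% DMSO) plus TGF-β1 20 ng/mL, 4 days at 37° C. αSMA-positive live cells (SYTOX-excluded) were imaged, normalized to TGF-β1 controls and fitted for EC50; % inhibition at 10 μM given when EC50 >10 μM.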

[2] = system: primary human mesenchymal stem cells (hMSCs); test: Induction of chondrogenesis in primary human mesenchymal stem cells; assay type: cell-based; conditions: Homo sapiens, Mesenchymal stem cells, 144 h, 6 days; for Emax: chondrogenic nodules, TGF-β3 (10 ng/mL) positive control, read-out: Max. Activity as % TGF-β3 activity
Description: Representative compounds were screened using primary human mesenchymal stem cells (hMSCs) to determine their ability to induce chondrogenesis (process by which cartilage is developed).
Primary human mesenchymal stem cells (hMSCs) were purchased from Lonza (Walkersville, Md.) and expanded in Mesenchymal Stem Cell Growth Media (Lonza). Cells between passage 3 and 6 were used for the experiments.
Each compound was dissolved in DMSO as a 10 mM stock and used to prepare compound source plates. Serial dilution (1:3, 6-point dose-response curves from 2700 nM to 10 nM) and compound transfer was performed using the ECHO 550 (Labcyte, Sunnyvale, Calif.) into 96-well clear bottom assay plates (Greiner Bio-One) with appropriate DMSO backfill for a final DMSO concentration of 0.03%. hMSCs were plated at 20,000 cells/well in 250 μL/well Incomplete Chondrogenic Induction Medium (Lonza; DMEM, dexamethasone, ascorbate, insulin-transferrin-selenium [ITS supplement], gentamycin-amphotericin [GA-1000], sodium pyruvate, proline and L-glutamine). TGF-β3 (10 ng/mL) was used as a positive control for differentiation while negative control wells were treated with 75 nL DMSO for normalization and calculating EC50 values. Cells were incubated at 37° C. and 5% CO2 for 6 days. To image chondrogenic nodules, the cells were fixed using 4% formaldehyde (Electron Microscopy Sciences), and stained with 2 μg/mL Rhodamine B (Sigma-Aldrich) and 20 μM Nile Red (Sigma-Aldrich) [Johnson K., et. al, A Stem Cell-Based Approach to Cartilage Repair, Science, (2012). 336(6082), 717-721]. The nodules imaged (4 images per well at 4× magnification) by excitation at 531 nm and emission at 625 nm and quantified using the CellInsight CX5 (Thermo Scientific). Number of nodules in each well was normalized to the average of 3 DMSO treated wells on the same plate using Excel (Microsoft Inc.). The normalized averages (fold change over DMSO) of 3 replicate wells for each compound concentration were calculated. Due to solubility limitations of some of the compounds, curve fitting was incomplete leading to inaccurate EC50 determinations.
Using TGF-β3 as a positive control, the concentration of representative compounds required to induce 50% levels of chondrogenesis is reported. In addition, the maximum activity of each compound and the respective dose that each compound reached maximum chondrogenesis activity is reported.

| EC50 ([2]; concentration required to induce 50% levels of chondrogenesis vs TGF-β3, read-out: Conc (nM) of 50% TGF-β3 activity) [nM] | Structure (SMILES) | EC50 [1] [nM] | Emax [2] [%] |
| --- | --- | --- | --- |
| – | O=C(CC1CCNCC1)Nc1cncc(-c2cnc3[nH]nc(-c4cc5c(-c6ccccn6)cccc5[nH]4)c3c2)c1 [Compound 595, 2-(Piperidin-4-yl)-N-(5-(3-(4-(pyridin-2-yl)-1H-indol-2-yl)-1H-pyrazolo[3,4-b]pyridin-5-yl)pyridin-3-yl)acetamide] | 5610 | 79 |
| – | Cc1ncc(-c2cnc3[nH]nc(-c4cc5ccccc5[nH]4)c3c2)n1C [Compound 655, 5-(1,2-Dimethyl-1H-imidazol-5-yl)-3-(1H-indol-2-yl)-1H-pyrazolo[3,4-b]pyridine] | 3880 | 47 |
| 30 | CN(C)CCNc1cc(F)cc(-c2cccc3[nH]c(-c4n[nH]c5ncc(-c6cncc(OC7CCCCC7)c6)cc45)cc23)c1 [Compound 785, N^1-(3-(2-(5-(5-(Cyclohexyloxy)pyridin-3-yl)-1H-pyrazolo[3,4-b]pyridin-3-yl)-1H-indol-4-yl)-5-fluorophenyl)-N^2,N^2-dimethylethane-1,2-diamine] | 1240 | 147 |
